20 compounds from patent US20090304692A1, “TRIAZINE COMPOUNDS AS PI3 KINASE AND MTOR INHIBITORS” (Wyeth, priority 2008, published 2009) can be followed below.

Where “and” joins values, the source holds several entries; their conditions need not be identical. Equal entries are not always repeated. Where two headings read alike, the source gives them in different places.

One experiment has as its target Human mTOR (FLAG-TOR) (Homo sapiens, UniProt P42345). Put plainly: mTOR kinase assay (DELFIA format, purified enzyme). It counts as biochemical. The following applies: read-out: IC50 mTOR.
A further experiment addresses PI3K-α (Homo sapiens, UniProt P42336). Put plainly: PI3K-alpha fluorescence polarization assay. The following applies: read-out: IC50 PI3Kα. (In general: Polarisation of emitted light reports the rotation of a fluorescent probe.)
The target of another experiment is PI3K-γ (Homo sapiens, UniProt P48736). Put plainly: PI3K-gamma fluorescence polarization assay.
Experiment [1] has as its system human prostate LNCap tumor cell line. Put plainly: In vitro cell culture growth assay (MTS), LNCap. The following applies: read-out: IC50 LNCap.

PI3K-α, sequence (P42336 whole entry, species assumed): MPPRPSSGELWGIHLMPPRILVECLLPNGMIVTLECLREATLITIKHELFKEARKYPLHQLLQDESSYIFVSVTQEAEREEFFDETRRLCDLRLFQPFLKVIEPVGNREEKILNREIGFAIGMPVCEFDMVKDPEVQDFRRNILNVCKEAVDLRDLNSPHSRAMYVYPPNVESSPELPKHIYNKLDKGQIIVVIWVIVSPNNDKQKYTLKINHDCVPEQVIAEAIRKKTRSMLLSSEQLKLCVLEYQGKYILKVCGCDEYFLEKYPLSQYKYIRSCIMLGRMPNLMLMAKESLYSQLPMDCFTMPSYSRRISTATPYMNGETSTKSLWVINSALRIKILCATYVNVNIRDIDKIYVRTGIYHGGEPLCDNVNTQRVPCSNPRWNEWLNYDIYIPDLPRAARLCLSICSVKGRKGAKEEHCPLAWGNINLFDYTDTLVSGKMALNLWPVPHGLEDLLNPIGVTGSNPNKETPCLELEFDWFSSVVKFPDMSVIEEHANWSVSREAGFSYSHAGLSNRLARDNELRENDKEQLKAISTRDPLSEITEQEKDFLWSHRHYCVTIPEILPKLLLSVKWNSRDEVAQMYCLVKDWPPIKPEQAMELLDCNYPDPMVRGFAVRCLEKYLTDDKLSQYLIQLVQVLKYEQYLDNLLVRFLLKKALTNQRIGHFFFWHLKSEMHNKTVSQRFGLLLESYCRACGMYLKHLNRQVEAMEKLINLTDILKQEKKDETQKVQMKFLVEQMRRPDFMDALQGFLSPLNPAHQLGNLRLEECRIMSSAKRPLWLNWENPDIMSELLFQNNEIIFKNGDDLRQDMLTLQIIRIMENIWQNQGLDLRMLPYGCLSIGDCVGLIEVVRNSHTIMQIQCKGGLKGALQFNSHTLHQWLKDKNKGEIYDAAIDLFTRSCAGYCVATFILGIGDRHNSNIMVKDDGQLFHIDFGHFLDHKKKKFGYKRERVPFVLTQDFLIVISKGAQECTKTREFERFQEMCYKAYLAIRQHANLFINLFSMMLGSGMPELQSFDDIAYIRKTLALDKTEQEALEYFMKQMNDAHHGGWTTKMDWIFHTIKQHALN
PI3K-α, sequence (P27986 whole entry partner, species assumed): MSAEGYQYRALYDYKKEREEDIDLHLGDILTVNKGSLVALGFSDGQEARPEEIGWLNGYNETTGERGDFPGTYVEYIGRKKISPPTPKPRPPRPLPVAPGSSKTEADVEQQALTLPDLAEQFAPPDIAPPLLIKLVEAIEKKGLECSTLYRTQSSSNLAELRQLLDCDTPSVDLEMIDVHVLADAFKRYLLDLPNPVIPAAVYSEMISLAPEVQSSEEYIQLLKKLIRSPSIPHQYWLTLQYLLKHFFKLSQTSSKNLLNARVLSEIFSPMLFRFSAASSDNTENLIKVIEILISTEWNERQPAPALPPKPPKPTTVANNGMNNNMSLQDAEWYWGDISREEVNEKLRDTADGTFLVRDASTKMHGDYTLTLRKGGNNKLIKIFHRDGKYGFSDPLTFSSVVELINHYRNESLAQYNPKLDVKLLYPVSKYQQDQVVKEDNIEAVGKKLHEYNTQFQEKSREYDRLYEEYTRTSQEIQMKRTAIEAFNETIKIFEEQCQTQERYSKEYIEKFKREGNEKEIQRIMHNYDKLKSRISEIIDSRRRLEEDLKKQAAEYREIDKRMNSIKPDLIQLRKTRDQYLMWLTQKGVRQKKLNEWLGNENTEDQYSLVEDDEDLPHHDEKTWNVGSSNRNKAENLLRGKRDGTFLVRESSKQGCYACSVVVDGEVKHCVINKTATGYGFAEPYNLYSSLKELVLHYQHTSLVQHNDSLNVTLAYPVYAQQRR
Human mTOR (FLAG-TOR), sequence (P42345 1360-2549 limits assumed): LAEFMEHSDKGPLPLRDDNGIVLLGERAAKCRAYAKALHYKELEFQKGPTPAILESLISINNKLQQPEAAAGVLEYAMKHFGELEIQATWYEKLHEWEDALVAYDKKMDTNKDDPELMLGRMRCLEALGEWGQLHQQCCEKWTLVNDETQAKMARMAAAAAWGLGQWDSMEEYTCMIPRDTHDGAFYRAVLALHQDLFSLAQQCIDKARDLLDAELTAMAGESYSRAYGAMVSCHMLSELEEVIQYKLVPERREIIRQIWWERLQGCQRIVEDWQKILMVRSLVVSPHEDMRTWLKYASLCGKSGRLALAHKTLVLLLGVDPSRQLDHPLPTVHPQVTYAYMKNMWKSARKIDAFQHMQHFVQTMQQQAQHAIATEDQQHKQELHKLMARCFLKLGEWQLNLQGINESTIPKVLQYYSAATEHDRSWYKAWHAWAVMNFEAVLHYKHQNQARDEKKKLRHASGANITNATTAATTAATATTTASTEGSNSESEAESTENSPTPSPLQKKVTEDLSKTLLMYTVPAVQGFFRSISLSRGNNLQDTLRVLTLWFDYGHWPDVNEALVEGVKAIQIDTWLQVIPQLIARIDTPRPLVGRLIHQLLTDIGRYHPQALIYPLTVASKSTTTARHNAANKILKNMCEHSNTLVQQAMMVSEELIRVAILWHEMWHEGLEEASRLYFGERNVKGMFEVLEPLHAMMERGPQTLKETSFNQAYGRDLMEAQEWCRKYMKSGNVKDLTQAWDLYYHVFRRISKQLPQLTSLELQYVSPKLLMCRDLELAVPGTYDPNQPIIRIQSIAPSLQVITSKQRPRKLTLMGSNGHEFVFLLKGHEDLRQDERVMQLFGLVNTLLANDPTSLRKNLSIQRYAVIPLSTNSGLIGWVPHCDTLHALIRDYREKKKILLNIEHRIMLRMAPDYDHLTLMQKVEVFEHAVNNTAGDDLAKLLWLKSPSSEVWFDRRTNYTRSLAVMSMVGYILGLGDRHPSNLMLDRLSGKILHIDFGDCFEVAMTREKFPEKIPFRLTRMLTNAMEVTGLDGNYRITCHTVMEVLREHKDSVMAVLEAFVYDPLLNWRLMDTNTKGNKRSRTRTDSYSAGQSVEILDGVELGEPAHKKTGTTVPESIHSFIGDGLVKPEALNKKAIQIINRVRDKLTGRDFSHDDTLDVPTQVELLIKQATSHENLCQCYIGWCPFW
PI3K-γ, sequence (P48736 whole entry, species assumed): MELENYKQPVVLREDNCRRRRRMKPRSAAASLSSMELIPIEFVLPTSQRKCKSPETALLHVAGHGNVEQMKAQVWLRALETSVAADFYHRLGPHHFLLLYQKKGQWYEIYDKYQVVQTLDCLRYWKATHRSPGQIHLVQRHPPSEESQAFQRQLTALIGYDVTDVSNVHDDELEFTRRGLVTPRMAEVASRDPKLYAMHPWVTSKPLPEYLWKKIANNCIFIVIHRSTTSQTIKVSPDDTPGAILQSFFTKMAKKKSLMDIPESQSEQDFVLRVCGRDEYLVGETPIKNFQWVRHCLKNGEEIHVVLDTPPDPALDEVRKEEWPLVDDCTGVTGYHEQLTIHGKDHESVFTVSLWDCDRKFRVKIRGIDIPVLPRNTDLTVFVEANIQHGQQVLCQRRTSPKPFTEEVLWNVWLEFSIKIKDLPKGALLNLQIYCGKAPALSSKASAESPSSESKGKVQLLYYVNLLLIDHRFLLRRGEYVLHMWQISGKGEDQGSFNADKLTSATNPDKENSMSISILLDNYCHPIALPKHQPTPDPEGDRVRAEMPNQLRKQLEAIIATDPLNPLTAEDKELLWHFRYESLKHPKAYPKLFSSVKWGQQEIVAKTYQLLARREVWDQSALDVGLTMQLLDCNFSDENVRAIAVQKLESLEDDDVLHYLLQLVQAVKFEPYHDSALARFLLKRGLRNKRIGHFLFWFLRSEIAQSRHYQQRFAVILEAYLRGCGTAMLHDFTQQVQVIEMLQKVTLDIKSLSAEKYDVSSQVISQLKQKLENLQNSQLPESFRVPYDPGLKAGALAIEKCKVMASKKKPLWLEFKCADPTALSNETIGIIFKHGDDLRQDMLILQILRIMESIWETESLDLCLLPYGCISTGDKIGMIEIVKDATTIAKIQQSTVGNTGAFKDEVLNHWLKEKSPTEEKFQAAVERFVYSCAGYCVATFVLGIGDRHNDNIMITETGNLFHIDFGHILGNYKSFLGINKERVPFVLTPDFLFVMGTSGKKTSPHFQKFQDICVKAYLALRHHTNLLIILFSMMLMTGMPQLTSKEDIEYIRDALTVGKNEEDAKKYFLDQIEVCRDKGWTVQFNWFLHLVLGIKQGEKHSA

A word on the IC50: it is the concentration at which inhibition is half-maximal. As to `COCCNc1nc(-c2ccc(NC(=O)Nc3cccnc3)cc2)nc(N2CC3CCC(C2)O3)n1` [Example 258, 1-(4-{4-[(2-methoxyethyl)amino]-6-(8-oxa-3-azabicyclo[3.2.1]oct-3-yl)-1,3,5-triazin-2-yl}phenyl)-3-pyridin-3-ylurea], the IC50 on Human mTOR (FLAG-TOR) stood at 2.3 nM; at PI3K-α, 403 nM; at PI3K-γ (read-out: IC50 PI3Kγ) it was 6170 nM; in experiment [1] (Homo sapiens, LNCaP, 72 h) it was 60 nM.
With `C[C@@H](CO)Nc1nc(-c2ccc(NC(=O)Nc3cccnc3)cc2)nc(N2CC3CCC(C2)O3)n1` [Example 259, 1-{4-[4-{[(1S)-2-hydroxy-1-methylethyl]amino}-6-(8-oxa-3-azabicyclo[3.2.1]oct-3-yl)-1,3,5-triazin-2-yl]phenyl}-3-pyridin-3-ylurea], the IC50 came out at 2.4 nM at Human mTOR (FLAG-TOR); 408 nM at PI3K-α; 5410 nM at PI3K-γ (read-out: IC50 PI3Kγ); 580 nM in experiment [1] (Homo sapiens, LNCaP, 72 h).
The corresponding values for `C[C@H](CO)Nc1nc(-c2ccc(NC(=O)Nc3cccnc3)cc2)nc(N2CC3CCC(C2)O3)n1` [Example 260, 1-{4-[4-{[(1R)-2-hydroxy-1-methylethyl]amino}-6-(8-oxa-3-azabicyclo[3.2.1]oct-3-yl)-1,3,5-triazin-2-yl]phenyl}-3-pyridin-3-ylurea] are 0.9 nM, 417 nM, 4730 nM and 380 nM.
The corresponding values for `CC(C)(CO)Nc1nc(-c2ccc(NC(=O)Nc3cccnc3)cc2)nc(N2CC3CCC(C2)O3)n1` [Example 261, 1-(4-{4-[(2-hydroxy-1,1-dimethylethyl)amino]-6-(8-oxa-3-azabicyclo[3.2.1]oct-3-yl)-1,3,5-triazin-2-yl}phenyl)-3-pyridin-3-ylurea] are 0.31 nM, 158 nM, 2530 nM and 30 nM.
The corresponding values for `CC(C)(C)Nc1nc(-c2ccc(NC(=O)Nc3cccnc3)cc2)nc(N2CC3CCC(C2)O3)n1` [Example 262, 1-{4-[4-(tert-butylamino)-6-(8-oxa-3-azabicyclo[3.2.1]oct-3-yl)-1,3,5-triazin-2-yl]phenyl}-3-pyridin-3-ylurea] are 0.29 nM, 105 nM, 954 nM and 22 nM.
For the compound `O=C(Nc1ccc(-c2nc(N3C[C@@H]4C[C@H]3CO4)nc(N3C[C@@H]4C[C@H]3CO4)n2)cc1)Nc1ccc(N2CCNCC2)cc1` [Example 313, 1-{4-[4,6-di-(1S,4S)-2-oxa-5-azabicyclo[2.2.1]hept-5-yl-1,3,5-triazin-2-yl]phenyl}-3-(4-piperazin-1-ylphenyl)urea], the IC50 turned out to be 37 nM at Human mTOR (FLAG-TOR); 1730 nM on PI3K-α; 7490 nM on PI3K-γ (read-out: IC50 PI3Kγ); 100 nM in experiment [1] (MTS cell growth assay, three days after drug treatment).
Regarding `CN1CCN(c2ccc(Nc3nc(-c4ccc(NC(=O)NCCF)cc4)nc(N4CC5CCC(C4)O5)n3)cc2)CC1` [Example 315, 1-(2-fluoroethyl)-3-{4-[4-{[4-(4-methylpiperazin-1-yl)phenyl]amino}-6-(8-oxa-3-azabicyclo[3.2.1]oct-3-yl)-1,3,5-triazin-2-yl]phenyl}urea], the IC50 on Human mTOR (FLAG-TOR) was 5 nM and 5.8 nM; on PI3K-α, 1100 nM; at PI3K-γ (read-out: IC50 PI3Kγ), 7900 nM; in experiment [1] (Homo sapiens, LNCaP, 72 h), 300 nM.
On to `CN1CCN(c2ccc(Nc3nc(-c4ccc(NC(=O)NC5CC5)cc4)nc(N4CC5CCC(C4)O5)n3)cc2)CC1` [Example 316, 1-cyclopropyl-3-{4-[4-{[4-(4-methylpiperazin-1-yl)phenyl]amino}-6-(8-oxa-3-azabicyclo[3.2.1]oct-3-yl)-1,3,5-triazin-2-yl]phenyl}urea], for which the IC50 at Human mTOR (FLAG-TOR) was 71 nM and 11 nM; on PI3K-α it was 1410 nM; on PI3K-γ (read-out: IC50 PI3Kγ), 2690 nM; in experiment [1] (Homo sapiens, LNCaP, 72 h) it was 320 nM.
In the case of `CN1CCN(c2ccc(Nc3nc(-c4ccc(NC(=O)Nc5ccccc5)cc4)nc(N4CC5CCC(C4)O5)n3)cc2)CC1` [Example 319, 1-{4-[4-{[4-(4-methylpiperazin-1-yl)phenyl]amino}-6-(8-oxa-3-azabicyclo[3.2.1]oct-3-yl)-1,3,5-triazin-2-yl]phenyl}-3-phenylurea], the IC50 at Human mTOR (FLAG-TOR) is 4.4 nM and 4 nM; on PI3K-α, 80 nM; at PI3K-α (listed as 335), 81 nM; at PI3K-γ (read-out: IC50 PI3Kγ) it was 1450 nM; on PI3K-γ (read-out: IC50 PI3Kγ, listed as 335), 144 nM; in experiment [1] (Homo sapiens, LNCaP, 72 h) it was 220 nM.
With `CNC(=O)Nc1ccc(-c2nc(Nc3ccc(N4CCNCC4)cc3)nc(N3CC4CCC(C3)O4)n2)cc1` [Example 325, 1-methyl-3-(4-{4-(8-oxa-3-azabicyclo[3.2.1]oct-3-yl)-6-[(4-piperazin-1-ylphenyl)amino]-1,3,5-triazin-2-yl}phenyl)urea], the IC50 at Human mTOR (FLAG-TOR) was found to be 4.6 nM; at PI3K-α it was 74 nM; on PI3K-α (listed as 354), 69 nM; on PI3K-γ (read-out: IC50 PI3Kγ) it was 6240 nM; at PI3K-γ (read-out: IC50 PI3Kγ, listed as 354), 6220 nM; in experiment [1] (Homo sapiens, LNCaP, 72 h) it was 310 nM.
For the compound `O=C(Nc1ccc(-c2nc(Nc3ccc(N4CCNCC4)cc3)nc(N3CC4CCC(C3)O4)n2)cc1)NC1CC1` [Example 326, 1-cyclopropyl-3-(4-{4-(8-oxa-3-azabicyclo[3.2.1]oct-3-yl)-6-[(4-piperazin-1-ylphenyl)amino]-1,3,5-triazin-2-yl}phenyl)urea], the IC50 is 12.2 nM and 12 nM on Human mTOR (FLAG-TOR); 830 nM on PI3K-α; 6190 nM on PI3K-γ (read-out: IC50 PI3Kγ); 580 nM in experiment [1] (Homo sapiens, LNCaP, 72 h).
On to `O=C(NCCF)Nc1ccc(-c2nc(Nc3ccc(N4CCNCC4)cc3)nc(N3CC4CCC(C3)O4)n2)cc1` [Example 327, 1-(2-fluoroethyl)-3-(4-{4-(8-oxa-3-azabicyclo[3.2.1]oct-3-yl)-6-[(4-piperazin-1-ylphenyl)amino]-1,3,5-triazin-2-yl}phenyl)urea], for which the IC50 turned out to be 6.3 nM at Human mTOR (FLAG-TOR); 394 nM at PI3K-α; 5900 nM at PI3K-γ (read-out: IC50 PI3Kγ); 400 nM in experiment [1] (Homo sapiens, LNCaP, 72 h).
The corresponding values for `O=C(NCCO)Nc1ccc(-c2nc(Nc3ccc(N4CCNCC4)cc3)nc(N3CC4CCC(C3)O4)n2)cc1` [Example 328, 1-(2-hydroxyethyl)-3-(4-{4-(8-oxa-3-azabicyclo[3.2.1]oct-3-yl)-6-[(4-piperazin-1-ylphenyl)amino]-1,3,5-triazin-2-yl}phenyl)urea] are 4.6 nM, 261 nM, 14000 nM and 1500 nM.
As for `NC(=O)c1ccc(NC(=O)Nc2ccc(-c3nc(Nc4ccc(N5CCNCC5)cc4)nc(N4CC5CCC(C4)O5)n3)cc2)cc1` [Example 329, 4-{[(4-{4-(8-oxa-3-azabicyclo[3.2.1]oct-3-yl)-6-[(4-piperazin-1-ylphenyl)amino]-1,3,5-triazin-2-yl}phenyl)carbamoyl]amino}benzamide], the IC50 worked out at 0.68 nM on Human mTOR (FLAG-TOR); 9.5 nM at PI3K-α; 9 nM on PI3K-α (listed as 358); 385 nM on PI3K-γ (read-out: IC50 PI3Kγ); 363 nM on PI3K-γ (read-out: IC50 PI3Kγ, listed as 358); 5900 nM in experiment [1] (Homo sapiens, LNCaP, 72 h).
On to `O=C(Nc1ccccc1)Nc1ccc(-c2nc(Nc3ccc(N4CCNCC4)cc3)nc(N3CC4CCC(C3)O4)n2)cc1` [Example 330, 1-(4-{4-(8-oxa-3-azabicyclo[3.2.1]oct-3-yl)-6-[(4-piperazin-1-ylphenyl)amino]-1,3,5-triazin-2-yl}phenyl)-3-phenylurea], for which the IC50 was 3.3 nM and 3.4 nM on Human mTOR (FLAG-TOR); 42 nM at PI3K-α; 827 nM on PI3K-γ (read-out: IC50 PI3Kγ); 260 nM in experiment [1] (Homo sapiens, LNCaP, 72 h).
With `CN(C)CC(=O)Nc1ccc(NC(=O)Nc2ccc(-c3nc(N4CC5CCC(C4)O5)nc(N4CC5CCC(C4)O5)n3)cc2)cc1` [Example 352, N-[4-({[4-(4,6-di-8-oxa-3-azabicyclo[3.2.1]oct-3-yl-1,3,5-triazin-2-yl)phenyl]carbamoyl}amino)phenyl]-N2,N2-dimethylglycinnamide], the half-inhibitory concentration (IC50) was 0.24 nM at Human mTOR (FLAG-TOR); 13.5 nM on PI3K-α; 732 nM at PI3K-γ (read-out: IC50 PI3Kγ); less than 0.8 nM in experiment [1] (Homo sapiens, LNCaP, 72 h).
Turning to `O=C(CN1CCCC1)Nc1ccc(NC(=O)Nc2ccc(-c3nc(N4CC5CCC(C4)O5)nc(N4CC5CCC(C4)O5)n3)cc2)cc1` [Example 353, N-[4-({[4-(4,6-di-8-oxa-3-azabicyclo[3.2.1]oct-3-yl-1,3,5-triazin-2-yl)phenyl]carbamoyl}amino)phenyl]-2-pyrrolidin-1-ylacetamide], the IC50 on Human mTOR (FLAG-TOR) was 0.22 nM; on PI3K-α, 8.5 nM; at PI3K-γ (read-out: IC50 PI3Kγ), 501 nM; in experiment [1] (Homo sapiens, LNCaP, 72 h), less than 0.8 nM.
With `CCNC(=O)Nc1ccc(-c2nc(NC3CCNCC3)nc(N3C4CCC3COC4)n2)cc1` [Example 360, 1-(4-(4-(3-oxa-8-azabicyclo[3.2.1]octan-8-yl)-6-(piperidin-4-ylamino)-1,3,5-triazin-2-yl)phenyl)-3-ethylurea], the IC50 at Human mTOR (FLAG-TOR) was 82 nM; on PI3K-α, 6670 nM; against PI3K-γ, greater than 10000 nM; in experiment [1] (Homo sapiens, LNCaP, 72 h) it was 10000 nM.
Regarding `O=C(Nc1ccc(CN2CCNCC2)cc1)Nc1ccc(-c2nc(N3C4CCC3COC4)nc(N3C4CCC3COC4)n2)cc1` [Example 366, 1-(4-(4,6-di(3-oxa-8-azabicyclo[3.2.1]octan-8-yl)-1,3,5-triazin-2-yl)phenyl)-3-(4-(piperazin-1-ylmethyl)phenyl)urea], the IC50 at Human mTOR (FLAG-TOR) amounted to 1.1 nM; on PI3K-α, 585 nM; on PI3K-γ (read-out: IC50 PI3Kγ), 3000 nM; in experiment [1] (Homo sapiens, LNCaP, 72 h), 2.8 nM.
As for `NCc1ccc(NC(=O)Nc2ccc(-c3nc(N4C5CCC4COC5)nc(N4C5CCC4COC5)n3)cc2)cc1` [Example 368, 1-(4-(aminomethyl)phenyl)-3-(4-(4,6-di(3-oxa-8-azabicyclo[3.2.1]octan-8-yl)-1,3,5-triazin-2-yl)phenyl)urea], the IC50 stood at 0.68 nM on Human mTOR (FLAG-TOR); 109 nM at PI3K-α; 1940 nM on PI3K-γ (read-out: IC50 PI3Kγ); 0.7 nM in experiment [1] (Homo sapiens, LNCaP, 72 h).
